From BigSolDB 2.1

COC(=O)CC[C@H](N)C(=O)O
solubility (mole fraction)
Conditions | 283.15 K | 288.15 K | 293.15 K | 298.15 K | 303.15 K | 308.15 K | 313.15 K | 318.15 K | 323.15 K
in acetone | 5.18e-05 | 9.7e-05 | 0.000148 | 0.000221 | 0.000292 | 0.000377 | 0.000438 | 0.000516 | 0.000572
in ethanol | 0.000116 | 0.000147 | 0.000177 | 0.000212 | 0.000245 | 0.000272 | 0.000307 | 0.000348 | 0.000383
in isopropanol | 8.34e-05 | 0.000104 | 0.000124 | 0.000144 | 0.000166 | 0.000196 | 0.000217 | 0.000245 | 0.000272
in methanol | 0.00115 | 0.00122 | 0.0013 | 0.00138 | 0.00145 | 0.00152 | 0.00161 | 0.0017 | 0.00179
in n-propanol | 1.38e-05 | 4.22e-05 | 7.7e-05 | 0.000116 | 0.000154 | 0.000208 | 0.000246 | 0.000289 | 0.000336
in water | 0.0337 | 0.036 | 0.0394 | 0.0426 | 0.0457 | 0.0489 | 0.0523 | 0.0565 | 0.0608
